# In patent US20260315483A1, “HETEROCYCLIC COMPOUNDS AS TRIGGERING RECEPTOR EXPRESSED ON MYELOID CELLS 2 AGONISTS AND METHODS OF USE” (VIGIL NEUROSCIENCE, INC., priority 2023, published 2026):
# Biological target: T1, human TREM2 (Homo sapiens, UniProt Q9NZC2)
# T1 construct: expressed in transfected cells; host or cells: HEK293T-hTREM2 cells (HEK cell line expressing human TREM2 and DAP12)
# Experiment: In vitro measurement of TREM2 activity using cellular phosphorylation of spleen tyrosine kinase (Syk), AlphaLisa, HEK293T-hTREM2 cells
# Format: cell-based
# Details: HEK293T cells expressing human TREM2 and DAP12, 45 min at room temperature, Table D
# Procedure: In Vitro Measurement of Triggering Receptor Expressed on Myeloid Cells 2 Activity Using Cellular Phosphorylation of Spleen Tyrosine Kinase (“Syk”) Assays
# Measurement of TREM2 agonist potency was done using a HEK cell line expressing human TREM2 and DAP12 (HEK293T-hTREM2 cells). Binding of small molecules to, and activation of, TREM2 increases the phosphorylation of Syk. The resultant levels of Syk phosphorylation are measured using a commercial AlphaLisa reagent kit. To perform the assay, HEK-hTREM2 cells were plated at 14,000 cells per well in a 384 well plate, in 25 μL of complete growth media and incubated at 37° C., 5% CO2 for 20-24 hours.
# Prior to the assay, test compounds were diluted in the 384 well plates in assay buffer and allowed to equilibrate for 30 minutes. Growth media was removed from cell plates by inversion on blotting paper, and 25 μL of test articles in assay buffer was added to cells. Cells were incubated for 45 minutes at room temperature. After 45 minutes, assay buffer was removed and 10 μL of lysis buffer was added. Plates were shaken for 20 minutes at 350 RPM at room temperature. After complete lysis, AlphaLisa reagents were added to the lysate, and fluourescence intensity was measured using a Perkin Elmer Envision plate reader. Intensities were used to generate a standard curve, and % activation was calculated. Curve fitting was performed using Prism v9 software, log(agonist) vs response—variable slope (four parameters), and EC50s were calculated from the curve fit.
# The results presented in Tables D and D-2 have been generated with the in vitro assay described above. This assay may be used to test any of the compounds described herein to assess and characterize a compound's ability to act as an agonist of TREM2.
# T1 sequence (Q9NZC2 19-230): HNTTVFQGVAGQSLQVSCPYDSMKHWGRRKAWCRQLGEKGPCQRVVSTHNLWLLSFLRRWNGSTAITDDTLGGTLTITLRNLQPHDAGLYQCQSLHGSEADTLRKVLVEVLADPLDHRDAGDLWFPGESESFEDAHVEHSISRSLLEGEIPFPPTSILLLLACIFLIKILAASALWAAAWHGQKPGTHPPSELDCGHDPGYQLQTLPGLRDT
# T1 sequence (O43914 22-113 partner): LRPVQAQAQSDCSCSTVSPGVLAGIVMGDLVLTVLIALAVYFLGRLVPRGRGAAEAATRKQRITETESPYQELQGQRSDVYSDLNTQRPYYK
row,SMILES,EC50 [nM]
1,"CN(C)c1nc2nc(C3CCO[C@@H](c4cnn(C5CC5)c4)C3)nc(-c3cc(F)ccc3F)c2s1 (mixture of isomers) [compound 104, 7-(2,5-difluorophenyl)-N,N-dimethyl-5-[rac-(2R)-2-(1-cyclopropylpyrazol-4-yl)tetrahydropyran-4-yl]thiazolo[4,5-d]pyrimidin-2-amine]",50 to 500
2,"CN(C)c1nc2nc([C@@H]3CCO[C@@H](c4cnn(C5CC5)c4)C3)nc(-c3cc(F)c(Cl)cc3F)c2s1 (racemic) [compound 106, 7-(4-chloro-2,5-difluoro-phenyl)-N,N-dimethyl-5-[rac-(2R,4R)-2-(1-cyclopropylpyrazol-4-yl)tetrahydropyran-4-yl]thiazolo[4,5-d]pyrimidin-2-amine]",3000 to 100000
3,"CN(C)c1nc2nc(C3CCO[C@@H](c4cnn(C5CC5)c4)C3)nc(-c3ccc(F)c(F)c3F)c2s1 (stereo in doubt) [compound 107, 5-[(2R,4R)-2-(1-cyclopropylpyrazol-4-yl)tetrahydropyran-4-yl]-N,N-dimethyl-7-(2,3,4-trifluorophenyl)thiazolo[4,5-d]pyrimidin-2-amine]",≤ 50
4,"CN(C)c1nc2nc(C3CCO[C@@H](c4cnn(C5CC5)c4)C3)nc(-c3ccc(F)c(F)c3F)c2s1 (stereo in doubt) [compound 108, 5-[(2R,4S)-2-(1-cyclopropylpyrazol-4-yl)tetrahydropyran-4-yl]-N,N-dimethyl-7-(2,3,4-trifluorophenyl)thiazolo[4,5-d]pyrimidin-2-amine]",50 to 500
5,"CN(C)c1nc2nc(N3CCO[C@@H](c4cnn(C5CC5)c4)C3)nc(-c3ccc(F)cc3F)c2s1 [compound 100, 5-[(2S)-2-(1-cyclopropylpyrazol-4-yl)morpholin-4-yl]-7-(2,4-difluorophenyl)-N,N-dimethyl-thiazolo[4,5-d]pyrimidin-2-amine]",≤ 50
6,"CN(C)c1nc2nc(N3CCO[C@H](c4cnn(C5CC5)c4)C3)nc(-c3ccc(F)cc3F)c2s1 [compound 101, 5-[(2R)-2-(1-cyclopropylpyrazol-4-yl)morpholin-4-yl]-7-(2,4-difluorophenyl)-N,N-dimethyl-thiazolo[4,5-d]pyrimidin-2-amine]",50 to 500
7,"C[C@@H]1CN(c2nc(-c3ccc(C(F)F)cc3F)c3sc(N(C)C)nc3n2)C[C@H](c2cnn(C3CC3)c2)O1 [compound 102, 5-[(2S,6R)-2-(1-cyclopropylpyrazol-4-yl)-6-methyl-morpholin-4-yl]-7-[4-(difluoromethyl)-2-fluoro-phenyl]-N,N-dimethyl-thiazolo[4,5-d]pyrimidin-2-amine]",≤ 50
8,"CN(C)c1nc2nc([C@H]3CCO[C@@H](c4cnn(C5CC5)c4)C3)nc(-c3ccc(C(F)F)cc3F)c2s1 [compound 103, 5-[(2R,4S)-2-(1-cyclopropylpyrazol-4-yl)tetrahydropyran-4-yl]-7-[4-(difluoromethyl)-2-fluoro-phenyl]-N,N-dimethyl-thiazolo[4,5-d]pyrimidin-2-amine]",50 to 500
9,"CN(C)c1nc2nc([C@H]3CCO[C@@H](c4cnn(C5CC5)c4)C3)nc(-c3cc(F)c(Cl)cc3F)c2s1 [compound 105, 7-(4-chloro-2,5-difluoro-phenyl)-N,N-dimethyl-5-[(2R,4S)-2-(1-cyclopropylpyrazol-4-yl)tetrahydropyran-4-yl]thiazolo[4,5-d]pyrimidin-2-amine]",≤ 50
10,"C[C@@H]1CN(c2nc(-c3ccc(F)cc3F)c3sc(N4CCC[C@H]4C)nc3n2)C[C@H](c2cnn(C3CC3)c2)O1 [compound 109, (2S,6R)-2-(1-cyclopropyl-1H-pyrazol-4-yl)-4-(7-(2,4-difluorophenyl)-2-((R)-2-methylpyrrolidin-1-yl)thiazolo[4,5-d]pyrimidin-5-yl)-6-methylmorpholine]",≤ 50
11,"Cc1ccc(-c2nc(N3C[C@@H](C)O[C@@H](c4cnn(C5CC5)c4)C3)nc3nc(N(C)C)sc23)c(F)c1 [compound 110, 5-[(2S,6R)-2-(1-cyclopropylpyrazol-4-yl)-6-methyl-morpholin-4-yl]-7-(2-fluoro-4-methyl-phenyl)-N,N-dimethyl-thiazolo[4,5-d]pyrimidin-2-amine]",≤ 50
12,"C[C@@H]1CN(c2cc(-c3ccc(F)cc3F)c3sccc3n2)C[C@H](c2cnn(C3CC3)c2)O1 [compound 111, (2S,6R)-2-(1-cyclopropylpyrazol-4-yl)-4-[7-(2,4-difluorophenyl)thieno[3,2-b]pyridin-5-yl]-6-methyl-morpholine]",500 to 3000
13,"C[C@@H]1CN(c2nc(-c3ccc(F)cc3F)c3sc(N4CCC[C@@H]4C)nc3n2)C[C@H](c2cnn(C3CC3)c2)O1 [compound 112, (2S,6R)-2-(1-cyclopropylpyrazol-4-yl)-4-[7-(2,4-difluorophenyl)-2-[(2S)-2-methylpyrrolidin-1-yl]thiazolo[4,5-d]pyrimidin-5-yl]-6-methyl-morpholine]",≤ 50

# Other lines, results leading:
row,EC50 [nM],SMILES
1,50 to 500,"CN(C)c1nc2nc([C@H]3CCO[C@@H](c4ccc(=O)n(C)c4)C3)nc(-c3ccc(F)cc3F)c2s1 (stereo in doubt) [compound 119, 5-[(2R,4S)-4-[7-(2,4-difluorophenyl)-2-(dimethylamino)thiazolo[4,5-d]pyrimidin-5-yl]tetrahydropyran-2-yl]-1-methyl-pyridin-2-one]"
2,≤ 50,"CN(C)c1nc2nc([C@@H]3CCO[C@H](c4ccc(=O)n(C)c4)C3)nc(-c3ccc(F)cc3F)c2s1 (stereo in doubt) [compound 120, 5-[(2S,4R)-4-[7-(2,4-difluorophenyl)-2-(dimethylamino)thiazolo[4,5-d]pyrimidin-5-yl]tetrahydropyran-2-yl]-1-methyl-pyridin-2-one]"
3,50 to 500,"CN(C)c1nc2nc([C@H]3CCO[C@H](c4ccc(=O)n(C)c4)C3)nc(-c3ccc(F)cc3F)c2s1 (stereo in doubt) [compound 121, 5-[(2S,4S)-4-[7-(2,4-difluorophenyl)-2-(dimethylamino)thiazolo[4,5-d]pyrimidin-5-yl]tetrahydropyran-2-yl]-1-methyl-pyridin-2-one]"
4,≤ 50,"CC(C)c1nc2nc(N3C[C@@H](C)O[C@@H](c4cnn(C5CC5)c4)C3)nc(-c3ccc(F)cc3F)c2s1 [compound 113, (2S,6R)-2-(1-cyclopropyl-1H-pyrazol-4-yl)-4-(7-(2,4-difluorophenyl)-2-isopropylthiazolo[4,5-d]pyrimidin-5-yl)-6-methylmorpholine]"
5,≤ 50,"CCCc1nc2nc(N3C[C@@H](C)O[C@@H](c4cnn(C5CC5)c4)C3)nc(-c3ccc(F)cc3F)c2s1 [compound 114, (2S,6R)-2-(1-cyclopropyl-1H-pyrazol-4-yl)-4-(7-(2,4-difluorophenyl)-2-propylthiazolo[4,5-d]pyrimidin-5-yl)-6-methylmorpholine]"
6,500 to 3000,"Cc1cc([C@@H]2C[C@H](c3nc(-c4ccc(F)cc4F)c4sc(N(C)C)nc4n3)CCO2)ccn1 [compound 115, 7-(2,4-difluorophenyl)-N,N-dimethyl-5-[(2S,4R)-2-(2-methyl-4-pyridyl)tetrahydropyran-4-yl]thiazolo[4,5-d]pyrimidin-2-amine]"

# Same assay, conditions: HEK293T cells expressing human TREM2 and DAP12, 45 min at room temperature, Table D-2
row,EC50 [nM],SMILES
1,50 to 500,"C[C@@H]1CN(c2cc3c(c(C4CCC(C(F)(F)F)CC4)n2)CN(C)C3=O)C[C@H](c2cnn(C3CC3)c2)O1 (mixture of isomers) [compound 227, 6-[(2S,6R)-2-(1-cyclopropylpyrazol-4-yl)-6-methyl-morpholin-4-yl]-2-methyl-4-[4-(trifluoromethyl)cyclohexyl]-3H-pyrrolo[3,4-c]pyridin-1-one]"
